Measurements taken from ChEMBL document CHEMBL5303304, “EUbOPEN Chemogenomics Library - IncuCyte” (2023).

How the values were obtained:
Format in all cases: toxicity, cell-based
U2OS = test: Incucyte cell viability with U2OS; settings: human, 10 µM, compound concentration 10 uM
HEK-293T = test: Incucyte cell viability with HEK293T; settings: human, 10 µM, compound concentration 10 uM
Fibroblast = test: Incucyte cell viability with human fibroblast; settings: 10 µM, compound concentration 10 uM
Note: unitless GR value; below 1 slowed growth and below 0 cell loss.

SMILES	Growth Rate (U2OS; 0 h, replicate number 1)	Growth Rate (U2OS; 6 h, replicate number 1)	Growth Rate (U2OS; 12 h, replicate number 1)	Growth Rate (U2OS; 12 h, replicate number 2)	Growth Rate (U2OS; 18 h, replicate number 2)	Growth Rate (U2OS; 24 h, replicate number 1)	Growth Rate (HEK-293T; 0 h, replicate number 2)	Growth Rate (HEK-293T; 6 h, replicate number 1)	Growth Rate (HEK-293T; 6 h, replicate number 2)	Growth Rate (HEK-293T; 12 h, replicate number 1)	Growth Rate (HEK-293T; 12 h, replicate number 2)	Growth Rate (HEK-293T; 18 h, replicate number 2)	Growth Rate (HEK-293T; 24 h, replicate number 2)	Growth Rate (Fibroblast; 18 h, replicate number 1)	Growth Rate (Fibroblast; 24 h, replicate number 1)	Growth Rate (Fibroblast; 24 h, replicate number 2)	Growth Rate (Fibroblast; 6 h, replicate number 1)	Growth Rate (Fibroblast; 12 h, replicate number 1)	Growth Rate (Fibroblast; 12 h, replicate number 2)	Growth Rate (Fibroblast; 6 h, replicate number 2)	further results
Oc1c(CN2CCCC2)cc(COCc2ccccc2)c2cccnc12	0.25	0.93	0.55	0.58	0.56	0.79	-0.99	0.34	0.05	-0.04	-0.05	-0.21	-0.25	0.96	0.83	0.6					Growth Rate (U2OS; 6 h, replicate number 2): 0.91; Growth Rate (U2OS; 18 h, replicate number 1): 0.93; Growth Rate (U2OS; 24 h, replicate number 2): 0.54; Growth Rate (HEK-293T; 18 h, replicate number 1): -0.09; Growth Rate (HEK-293T; 24 h, replicate number 1): -0.18; Growth Rate (Fibroblast; 0 h, replicate number 1): 0.87
CCCc1c(OCCCOc2ccc(OCC(=O)O)cc2)ccc(C(C)=O)c1O		0.97	0.84				-0.76				0.94	0.97		0.6	0.94		0.58	0.74	0.87		Growth Rate (Fibroblast; 0 h, replicate number 2): -0.08
CN1CCCN(C(=O)c2cccc(-c3ccc(/C=C4/C(=O)Nc5ccc(Cl)cc54)o3)c2)CC1		-0.67	-0.7	-0.54	-0.44	-0.48	-1	-0.69	-0.67	-0.6	-0.63	-0.49	-0.47	-0.74	-0.67	-0.63	-0.99	-0.83	-0.82	-0.94	Growth Rate (U2OS; 0 h, replicate number 2): -0.78; Growth Rate (U2OS; 6 h, replicate number 2): -0.6; Growth Rate (U2OS; 18 h, replicate number 1): -0.53; Growth Rate (U2OS; 24 h, replicate number 2): -0.42; Growth Rate (HEK-293T; 18 h, replicate number 1): -0.51; Growth Rate (HEK-293T; 24 h, replicate number 1): -0.45; Growth Rate (Fibroblast; 18 h, replicate number 2): -0.72
CN[C@@H](C)C(=O)N[C@H](C(=O)N1CCC[C@H]1C(=O)N[C@H]1c2ccccc2C[C@H]1OCC#CC#CCO[C@@H]1Cc2ccccc2[C@@H]1NC(=O)[C@@H]1CCCN1C(=O)[C@@H](NC(=O)[C@H](C)NC)C1CCCCC1)C1CCCCC1	0.76	0.89		0.86	0.86	0.89	-0.94	0.13	0.46	-0.41	-0.22	0.01	0.02	0.75	0.63	0.43		0.87			Growth Rate (U2OS; 6 h, replicate number 2): 0.83; Growth Rate (U2OS; 18 h, replicate number 1): 0.87; Growth Rate (HEK-293T; 18 h, replicate number 1): -0.17; Growth Rate (HEK-293T; 24 h, replicate number 1): -0.12; Growth Rate (Fibroblast; 18 h, replicate number 2): 0.57
Nc1ncnc2c1ccn2[C@@H]1O[C@H]([C@@H](O)c2ccccc2)[C@@H](O)[C@H]1O				1	0.91	0.8	-0.97	0.8						0.97	0.81		0.32	0.69	0.57	0.31	Growth Rate (U2OS; 18 h, replicate number 1): 0.86; Growth Rate (U2OS; 24 h, replicate number 2): 0.95
COc1cc(N(C)c2ccnc3ccc(C(F)(F)F)cc23)cc(OC)c1OC			0.9	0.88	0.92	1	-1		-0.32		0.01	0.27	0.48				-0.52		0.94	0.41	Growth Rate (U2OS; 0 h, replicate number 2): 0.66; Growth Rate (U2OS; 6 h, replicate number 2): 0.7; Growth Rate (U2OS; 24 h, replicate number 2): 0.84; Growth Rate (Fibroblast; 0 h, replicate number 1): 0.97; Growth Rate (Fibroblast; 18 h, replicate number 2): 0.91
Cc1ccc(NS(=O)(=O)c2ccc3c(c2)C2C=CCC2C(c2ccc(C(=O)O)cc2)N3)cc1C (centres undefined)	0.88	0.79	0.82		0.99	0.93	-0.87			0.89				0.83	0.65	0.72	-0.66	0.86	0.36	0.01	Growth Rate (U2OS; 18 h, replicate number 1): 0.87; Growth Rate (U2OS; 24 h, replicate number 2): 0.91; Growth Rate (HEK-293T; 18 h, replicate number 1): 0.79; Growth Rate (Fibroblast; 0 h, replicate number 2): 0.82
CCC(=O)Nc1cc(Nc2cc(NC3CC3)n3ncc(C#N)c3n2)ccc1C	-1	0.24	0.12	0.52	0.54	0.44	-0.72	0.87	0.94	0.79	0.59	0.83	0.83	0.33	0.48	0.85	0.76	0.46	0.67	0.41	Growth Rate (U2OS; 6 h, replicate number 2): 0.61; Growth Rate (U2OS; 18 h, replicate number 1): 0.39; Growth Rate (U2OS; 24 h, replicate number 2): 0.53; Growth Rate (HEK-293T; 18 h, replicate number 1): 0.79; Growth Rate (HEK-293T; 24 h, replicate number 1): 0.81; Growth Rate (Fibroblast; 18 h, replicate number 2): 0.61
CC1CN(CC(=O)N2CC(C)(C)c3nc(CO)c(Cc4ccc(F)cc4)cc32)C(CN2CCOCC2C)CN1 (centres undefined)	-0.23						-0.63	0.63	0.88		0.96		0.89	0.98		0.9	0.63		0.94	0.4	Growth Rate (Fibroblast; 18 h, replicate number 2): 0.94
CN[C@@H](C)C(=O)N[C@H](C(=O)N1CCC[C@H]1C(=O)N[C@@H]1CCCc2ccccc21)C1CCCCC1.Cl	0.24	0.97	0.89				-0.36		0.63	0.81	0.9	0.87	0.88	0.75	0.72			0.76	0.89		
CN1CCN(c2ccc(/C=C(\C#N)c3ccccc3Br)cc2)CC1.Cl.Cl		0.94					-0.96	0	0.54	0.24	0.47	0.48	0.71	0.18	0.05	-0.21	0.32	0.42	-0.18	0.09	Growth Rate (HEK-293T; 18 h, replicate number 1): 0.38; Growth Rate (HEK-293T; 24 h, replicate number 1): 0.46; Growth Rate (Fibroblast; 0 h, replicate number 1): 0.9; Growth Rate (Fibroblast; 0 h, replicate number 2): 0.65; Growth Rate (Fibroblast; 18 h, replicate number 2): -0.18
